Here are results for one molecule from paper PMC10570016, “Domain collapse and active site ablation generate a widespread animal mitochondrial seryl-tRNA synthetase” (Nucleic Acids Research, 2023).

Each structure is given as a SMILES string.

This test has as its target T1, DmSLIMP/DmSerRS2α (Drosophila melanogaster, UniProt Q9VF85).
T1 construct: gene SerRS-m; co-expressed in E. coli BL21(DE3) from bicistronic pOPINFS; C-terminal 6His on DmSerRS2α, C-terminal Strep II on DmSLIMP; heterodimer; HisTrap; with Seryl-tRNA synthetase-like insect mitochondrial protein
T1 sequence (Q9VF85 22-417): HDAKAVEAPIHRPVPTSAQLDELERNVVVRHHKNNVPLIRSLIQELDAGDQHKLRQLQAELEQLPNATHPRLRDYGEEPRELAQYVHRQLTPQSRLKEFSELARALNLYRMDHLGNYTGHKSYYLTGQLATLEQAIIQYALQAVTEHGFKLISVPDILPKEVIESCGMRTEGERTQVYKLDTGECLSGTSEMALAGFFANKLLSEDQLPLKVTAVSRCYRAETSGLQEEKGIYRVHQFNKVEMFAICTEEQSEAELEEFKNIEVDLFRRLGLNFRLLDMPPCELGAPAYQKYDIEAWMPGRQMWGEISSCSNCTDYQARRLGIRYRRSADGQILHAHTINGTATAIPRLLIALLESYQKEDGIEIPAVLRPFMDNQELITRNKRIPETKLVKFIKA
T1 sequence (Q95T19 1-464 partner): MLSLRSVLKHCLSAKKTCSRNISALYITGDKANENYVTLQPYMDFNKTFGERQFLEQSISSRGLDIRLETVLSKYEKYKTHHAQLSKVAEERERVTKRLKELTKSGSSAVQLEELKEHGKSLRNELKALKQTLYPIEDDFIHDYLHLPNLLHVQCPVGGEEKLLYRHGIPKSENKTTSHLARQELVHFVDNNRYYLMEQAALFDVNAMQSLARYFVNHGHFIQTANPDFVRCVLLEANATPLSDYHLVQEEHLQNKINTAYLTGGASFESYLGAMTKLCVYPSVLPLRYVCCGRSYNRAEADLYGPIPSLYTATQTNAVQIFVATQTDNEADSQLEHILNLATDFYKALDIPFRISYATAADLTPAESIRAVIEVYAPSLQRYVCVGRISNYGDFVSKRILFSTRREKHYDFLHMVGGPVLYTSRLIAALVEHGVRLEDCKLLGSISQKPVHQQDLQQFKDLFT
Nature of the test: radiometric tRNA aminoacylation, scintillation counting. The class given is biochemical. The conditions noted are these: co-substrates ATP and in vitro transcribed Drosophila mt-tRNA-Ser(GCU); Mg2+; labelled compound; pH 7.2, 25 °C (mutant SerRS and tRNA assays pH 7.5).

For `N[C@@H](CO)C(=O)O` [serine], the “radiometric tRNA aminoacylation, scintillation counting” value is “In all cases the aminoacylation activity of DmSLIMP/DmSerRS2α was not affected by the presence of the LON domain”.
